Assay results as given in patent publication US20110223167A1, “COMBINATION THERAPY USING RECEPTOR TYROSINE KINASE INHIBITORS AND ANGIOGENESIS INHIBITORS” (priority 2001, published 2011).

Tested on: progressive squamous cell carcinoma of the superior maxilla
Conditions: for tumor response: weekly: 1200 mg/m^2 Cilengitide Monday and Friday, 200 mg EMD 72000 followed by 1000 mg/m^2 gemcitabine Thursday, from November 2000; for effect on tumor growth: cisplatin (75 mg/m^2) and docetaxel (75 mg/m^2) together, three administrations, from August 1999
[1] = EMD 121974 (600 mg/m^2) combined with gemcitabine (1000 mg/m^2), since mid of January 2000

Procedure: Case History and Clinical Findings/Status at the Start of the Compassionate use Treatment:
A biopsy of the suspected large tumor in the upper maxilla was performed. […] On Aug. […] Due to the unfavourable histologic classification the patient received a post-operative radiation therapy up to 50.4 Gray from September to October 1997.
In July 1998 progression of disease was suspected which led to hospitalization. […] After consultation of radiotherapists another radiotherapy was recommended which started in August 1998. The patient was treated simultaneously with gemcitabine (100 mg) as a radiosensitizer. […] Following the combined radio-chemotherapy the patient received a therapy with 1000 mg gemcitabine (5 circles of 16 administrations).
In March 1999 again progression of the carcinoma occurred which led to additional radiation therapy and palliative resection of the tumor.
Diffuse bleedings out of the large tumor mass required frequent transfusions of erythrocyte concentrates.
Course of Compassionate Use Treatment with Anti-Angiogenic Agent/Chemotherapeutic Agents:
The patient was treated with EMD 121974 and Gemzar from Nov. 17, 1999 until Mar. 30, 2000. From Jun. 04, 2000 until Apr. […] Chemotherapy-treatment was stopped because of haematotoxicity and Cilengitide treatment was continued alone.
The patient's condition worsened after several weeks and the patient was treated with an increased dose of 1200 mg/m^2 EMD 121974 twice weekly.
Treatment with h425+Cilengitide+Chemotherapeutics:
EMD 72000 was first given in November 2000 in a dosage of 200 mg (infusion over half an hour) after premedication with dexamethasone/dimetindenmaleate (Fenistil) and ranitidin (Zantic). One week later the patient received additionally gemcitabine (1000 mg/m^2). The weekly treatment schedule was: Monday: 1200 mg/m^2 Cilengitide (one hour is infusion), Thursday 200 mg EMD 72000 (half an hour infusion) followed by 1000 mg/m^2 gemcitabine (one hour infusion), Friday 1200 mg/m^2 Cilengitide (one hour infusion). […] The tumor masses were surgically removed at several occasions.

EMD 72000: Monoclonal human antibody 425 (h425), Merck KgaA, Germany; anti-EGFR antibody
tumor response: crater-like disintegration of the tumor mass

Nc1ccn([C@@H]2O[C@H](CO)[C@@H](O)C2(F)F)c(=O)n1 [gemcitabine, reference compound]
tumor response (clinical remission) (radiotherapy with simultaneous gemcitabine (100 mg) as radiosensitizer, 6 week-therapy from August 1998): complete clinical remission

CC(=O)O[C@@]12CO[C@@H]1C[C@H](O)[C@@]1(C)C(=O)[C@H](O)C3=C(C)[C@@H](OC(=O)[C@H](O)[C@@H](NC(=O)OC(C)(C)C)c4ccccc4)C[C@@](O)([C@@H](OC(=O)c4ccccc4)[C@H]21)C3(C)C [docetaxel, reference compound]
effect on tumor growth: lack of effect on tumor growth

CC(C)[C@H]1C(=O)N[C@@H](CCCN=C(N)N)C(=O)NCC(=O)N[C@@H](CC(=O)O)C(=O)N[C@H](Cc2ccccc2)C(=O)N1C [EMD 121974, Cyclo-(Arg-Gly-Asp-DPhe-NMeVal)]
surface of the tumor (EMD 121974 (600 mg/m^2) combined with gemcitabine (1000 mg/m^2)): signs of granulation and wound healing
tumor bleeding (EMD 121974 (600 mg/m^2) combined with gemcitabine (1000 mg/m^2), no need for further transfusions): Bleeding stopped
hearing [1]: able to hear again on their right ear
increase of mouth opening compared with December 1999 [1]: 30%
disease status (EMD 121974 alone, 600 mg/m^2 twice a week, April to June 2000): stable disease
tumor response: crater-like disintegration of the tumor mass

N.N.[Cl][Pt][Cl] [cisplatin, reference compound]
effect on tumor growth: lack of effect on tumor growth
